In patent US8138304B2, “Neural regeneration peptides and formulations thereof” (Neuren Pharmaceuticals Limited, priority 2005, dated 2012):
Where no end group is shown, it is not given here.

What was measured:
[1] = test system: mouse neural stem cells (MEB-5 cells); assay: Haptotactic migration assay, physiological (injury-free) conditions; assay type: cell-based; conditions: 0.1 ng/ml NRP coating
Description: An NRP was tested for migration-inducing/chemoattractive activity on mouse neural stem cells in a haptotactic migration assay as described below.
Control wells of Transwell plates (Corning) with 12 μm pore size were coated in 1.5 ml of the BSA/PBS vehicle. Remaining plates were coated using 0.1 ng/ml of NRP (SEQ ID NO: 1) (prepared in PBS containing 10 ug/ml BSA).
Laminin (7 μg/ml) was used as extracellular matrix (ECM) coating for mouse primary stem cells. The matrix was incubated at 37° C.; 5% C02 for 2 hrs at room temperature. The cells were seeded onto the inserts (30,000 cells per well). Plates were fixed at 1-2 days in vitro (DIV).
A 5 ug/mL PDL/PLL mixture (in PBS) was used to coat inserts. Subsequently the inserts were rinsed with MilliQ water.
Inserts were discarded and wells fixed in successive dilutions of PFA (0.4, 1.2, 3 and 4%) for 3-5 min in each dilution. […] The wells were rinsed and stored in PBS until counting.

[2] = test system: embryonic mouse neural stem cells (NSCs); assay: Haptotactic migration assay in injury conditions (activated astroglial monolayer); assay type: cell-based; conditions: 100 fM in lower compartment; TGFβ1 and scratch-activated astrocyte monolayer; 24 hrs
Description: The NRP of SEQ ID NO: 1 was tested for migration-inducing/chemoattractive activity on mouse neural stem cells in a haptotactic migration assay in injury conditions, as described below.
P1 (postnatal day 1) Wistar or Sprague Dawley rats were sacrificed by decapitation. Cortical hemispheres were removed and collected into separate tubes containing 4 ml DMEM—1 cortex per tube. The tissue was mechanically triturated. Cells were transferred into medium using a sterile pipette and filtered through a 100 um cell strainer into a 50 ml centrifuge tube. Each tube was stocked up to 50 ml with DMEM. The tubes were centrifuged for 5 mins at 350×g at 22° C. The cells were resuspended in 40 ml of DMEM+10% FBS. The cells were then seeded into a 12-well plate+5 nM ocadaic acid (to remove neurons by inducing apoptotic cell death) and incubated at 37° C./10% CO2 for 24 hrs […]. The medium+FBS was replaced after 1 day with fresh DMEM+10% FBS. The cell growth was monitored until confluency (14-18 days).
Induction of injuries to the astrocytic monolayer was accomplished using the pharmacological agent transforming growth factor β1 (TGFβ1) and simultaneous mechanical scratching of the monolayer in order to activate astrocytics. […]
Migrated stem cell number of labelled cells were analysed after 24 hrs by a fluorescence-based computerized imaging system (Discovery-1).

[3] = test system: purified primary placental trophoblasts; assay: TNF-alpha-induced cytotoxicity in isolated trophoblasts (survival assay); assay type: cell-based, human; conditions: 24 hrs pre-incubation
Description: Human trophoblast cells were isolated from term placentas with prior approval by the Ethics Committee of the University of Auckland and consent of the patients. The maternal decidua was removed, exposing the villous interior of the placenta. Pieces of villous tissue were cut out and washed thoroughly with PBS before digestion using 0.25% trypsin. The digest was then diluted in Locke Ringers Buffer and DNAase I. Digestion of connective tissue surrounding the placental cells was carried out while stirring the mixture with a magnetic stirrer at a temperature of 37° C. The process was repeated 8 times, with the last 6 supernatants being collected in a bottle containing fetal bovine serum (FBS). The digestion step produced a heterogeneous dispersed cell preparation. The pooled supernates was centrifuged for 7 minutes at 1200 rpm. The cell pellet was resuspended in PBS and centrifuged. This was followed by a 10-minute incubation in erythrocyte lysis buffer with an underlayer of FBS in the last 2 minutes, followed by centrifugation for 7 minutes. Cells were resuspended in M199 medium and recentrifuged.
Cells were then purified using a percoll gradient (5, 20, 30, 35, 40, 50 and 60%). The gradients were prepared with the 60% percoll on the bottom, with decreasing concentrations near the top of the gradient. Cells were introduced into the 5% percoll layer. The cells were centrifuged for 20 minutes at 1200G to separate trophoblasts from debris and other cell types, leaving a band of trophoblasts in the 40% percoll band. This band was collected, the cells washed in M199 medium centrifuged and finally counted and plated according to the methods of Keelan et al, 1998.
In this series of experiments, we studied whether NRP-5RG D6A was able to protect purified primary placental trophoblasts against TNF-alpha mediated injury.
In this study, we plated 30,000 freshly isolated trophoblast cells per well in microtiter well plates followed by pre-incubation with NRP-5RG D6A (SEQ ID NO: 1) for 24 hours. […]

REGRRAAPGRAGG-NH2 (listed as Homo sapiens) [SEQ ID NO: 1, 13-mer NRP analogue]
more cells migrating in comparison with BSA-vehicle [1]: 55.4% | more stem cells migrated than vehicle-treated controls [2]: 69.1% | protection from TNF-alpha mediated injury ([3]; 1 pM, TNF-alpha 5 or 50 ng/ml plus interferon gamma, 48 h): 100% | cytoprotection from TNF-alpha mediated injury ([3]; 10 pM): protective | cytoprotection from TNF-alpha mediated injury ([3]; 1 nM): not statistically significant
